These results are taken from patent publication US12460262B2, “Methods of detecting, preventing, reversing, and treating neurological diseases” (Washington University, priority 2018, dated 2025).

One assay has as its system ISF Aβ levels. Also noted: species or system mice. To be noted: mouse, in vivo.
Assay [1] concerns cultured fibroblasts of MPS patients. To be noted: cited from earlier work.
A further assay has as its system NAGLU-deficient mice. The following applies: cited from earlier work.
A further assay relates to Aβ secretion. The following applies: in vitro exposure; cited from earlier work.

Procedure for ISF Aβ levels: To investigate the effect of NAGLU on Aβ generation and clearance, in vivo microdialysis is used to dynamically assess ISF Aβ metabolism in the hippocampus of 5XFAD/NAGLU (+14 5XFAD/NAGLU (−/−) mice and 5XFAD littermates injected with AVV2/9 or PBS at 3-4 months of age. To assess ISF Aβ levels over time in the hippocampus of awake, freely moving mice in vivo microdialysis is performed as previously described. Briefly, under isoflurane anesthesia, a guide cannula is stereotaxically implanted above the hippocampus (3.1 mm behind bregma, 2.5 mm lateral to midline, and 1.2 mm below dura at a 12° angle). A microdialysis probe is inserted through the guide cannula into the brain. Artificial CSF is used as microdialysis perfusion buffer. Microdialysis samples are collected every 60-90 min and are assessed for Aβ40 or Aβ42 by ELISAs. The mean concentration of Aβ over 6 hr is defined as basal concentration of ISF Aβ. For each animal, all Aβ concentrations are normalized to the basal Aβ concentration for that mouse. After basal concentration is determined mice are administered a blood-brain permeable γ-secretase inhibitor (LY411575, 3 mg/kg subcutaneously) to rapidly block the production of Aβ. […] The half-life of ISF Aβ is calculated on the basis of the slope of the semi-log plot of % change in Aβ versus time. […]

For `CCN(CC)CCCC(C)Nc1ccnc2cc(Cl)ccc12` (centres unmarked) [Chloroquine], in the assay on ISF Aβ levels, the “change of ISF levels of Aβ” value is “did not change”.

On to `O=c1c(-c2ccc(O)cc2)coc2cc(O)cc(O)c12` [Genistein, 4′,5,7-trihydroxyisoflavone or 5,7-dihydroxy-3-(4-hydroxyphenyl)-4H-1-benzopyran-4-one], for which the “synthesis of glycosaminoglycans (GAGs)” value in assay [1] is listed as “inhibits synthesis of glycosaminoglycans (GAGs)”. Moreover, the lysosomal storage material entry in the assay with NAGLU-deficient mice was “reduces lysosomal storage material”.

Consider `Cl.N` [ammonium chloride], for which the Aβ secretion entry in the assay with Aβ secretion was “reduces Aβ secretion”.

On to `CO/C1=C\C(C)=C\[C@@H](C)[C@@H](O)[C@@H](C)C/C(C)=C/C=C/[C@H](OC)[C@@H]([C@@H](C)[C@@H](O)[C@H](C)[C@@]2(O)C[C@@H](O)[C@H](C)[C@@H](C(C)C)O2)OC1=O` [bafilomycin A1], for which the Aβ secretion result in the assay with Aβ secretion is “reduces Aβ secretion”.
